Measured values: US6242445A, “Benzimidazole derivative” (Kureha Chemical Industry Co., Ltd., priority 1998, dated 2001)
One block for each compound: values may come before it.

Experiments:
[1] = biological target: T1, angiotensin II receptor subtype 1 (AT1) (Oryctolagus cuniculus, UniProt P34976); assay: Binding assay, angiotensin II receptor subtype 1 (AT1); parameters: species or system rabbits; inhibition: dose or concentration left out as unconfirmed; details: 3 h
T1 construct: from adrenal glands in rabbits; from tissue; host or cells: adrenal glands of rabbits
T1 sequence (P34976 1-359): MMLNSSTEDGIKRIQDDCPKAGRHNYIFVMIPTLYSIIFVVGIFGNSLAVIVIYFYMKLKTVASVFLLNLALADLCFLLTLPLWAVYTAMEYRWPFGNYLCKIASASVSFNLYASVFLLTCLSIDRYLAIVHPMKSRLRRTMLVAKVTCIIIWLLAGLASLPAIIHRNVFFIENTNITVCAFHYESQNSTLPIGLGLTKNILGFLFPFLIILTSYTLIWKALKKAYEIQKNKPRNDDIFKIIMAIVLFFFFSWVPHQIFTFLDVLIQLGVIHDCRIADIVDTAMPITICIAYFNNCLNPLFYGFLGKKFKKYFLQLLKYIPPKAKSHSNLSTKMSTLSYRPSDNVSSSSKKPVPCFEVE
Description: (§1) In this Example, a binding assay was carried out. That is, the affinity to the angiotensin II receptor subtype 1 orsubtype 2 was evaluated in accordance with the method described in Biochem. Pharmacol., 33, 4057-4062 (1984).
(§2) Specifically, the measurement of the total binding in the presence of each drug was performed as follows:
(§3) A mixture (final volume=0.25 ml) of a drug in a given concentration (the drug was dissolved in DMSO, and diluted to a double volume with a buffer attached to a drug discovery system to prepare a sample for the assay; 0.025 ml), a tracer (0.025 ml), and receptors (0.2 ml) was incubated [in the case of the angiotensin II receptor subtype 1 (AT1), at room temperature for 3 hours, and in the case of the subtype 2 (AT2), at 37° C. for 1 hour]. Then, the reaction mixture was filtered with suction (a GF/C filter was used in AT1, and a GF/B filter was used in AT2). The filter papers after filtration with suction (the tracer bound to the receptors) were counted by a γ-well counter (ARC-500, Aloka). The non-specific bindings were measured by repeating the above method, except that a large excess amount of a displacer was added. The specific binding of the drug in the given concentration was calculated by subtracting the non-specific binding from the total binding, respectively.
tracer: ^3 H-angiotensin II

[2] = biological target: T2, angiotensin II receptor subtype 2 (AT2) (Bos taurus, UniProt G5E6F7); assay: Binding assay, angiotensin II receptor subtype 2 (AT2); parameters: species or system bovine; dose or concentration left out as unconfirmed; details: 1 h; tracer 125I-Tyr4-angiotensin II
T2 construct: from cerebellar cortex in bovine; from tissue; host or cells: cerebellar cortex, bovine
T2 sequence (G5E6F7 1-362): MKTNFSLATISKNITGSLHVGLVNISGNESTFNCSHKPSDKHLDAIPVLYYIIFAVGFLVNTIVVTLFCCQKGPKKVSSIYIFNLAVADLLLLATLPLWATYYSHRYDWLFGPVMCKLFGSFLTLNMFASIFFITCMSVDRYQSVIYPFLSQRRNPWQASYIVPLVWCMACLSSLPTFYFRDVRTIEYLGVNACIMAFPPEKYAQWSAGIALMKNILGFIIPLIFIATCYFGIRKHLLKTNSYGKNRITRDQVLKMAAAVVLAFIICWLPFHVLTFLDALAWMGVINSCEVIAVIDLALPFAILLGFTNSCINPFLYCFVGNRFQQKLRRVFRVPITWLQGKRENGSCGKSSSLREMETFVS
Description: as §1, §2, §3
In AT1 and AT2, the percentages found to inhibit the bindings of radioactive ligands (tracer) to receptors by the drugs to be tested (IC50 value of concentration to show 50% inhibition, […]) were measured, using the drugs to be tested and control drugs in the given concentration.
receptor: from cerebellar cortex in bovine
tracer: ^125 I-Tyr^4 -angiotensin II
control drug: angiotensin II (human)
(displacer): angiotensin II (human)

[3] = test system: ICR female mice; assay: Acute toxicity (single oral administration); type: in vivo; details: 500 mg/kg single oral; deaths observed for 6 days
Description: Acute toxicity was evaluated in this Example. As a compound to be examined, 2-ethoxy-1-[[4'-(2"-N,N-dimethylamino-ethoxycarbonyl)phenyl]methyl]-1H-benzimidazole-6-carboxylic acid morpholide (Compound No. 13) prepared in Example 6 was used.
Five-week-old ICR female mice (5 mice per group) were bredfor acclimation for a week. Then, Compound No. 13 was dissolved or suspended in 0.5% methylcellulose aqueous solution, and orally administered to the mice in a single dosage (500 mg/kg). […] Further, as to Compound No. 55, Compound No. 57, Compound No. 59, and Compound No. 65 prepared in Examples 26, 28, 31, and 23, respectively, acute toxicity was also evaluated.

[4] = J. Clin. Pharmacol., 30: 155 to 158, 1990; cited from earlier work

Compound: CCOc1nc2ccc(C(=O)N3CCCCC3)cc2n1Cc1ccc(C(=O)O)cc1 [Compound No. 5, 2-ethoxy-1-[(4'-carboxyphenyl)methyl]-1H-benzimidazole-6-carboxylic acid piperidinamide]
inhibition [1]: 50% | inhibition [2]: 0%

Compound: CCOc1nc2ccc(C(=O)N3CCCCCC3)cc2n1Cc1ccc(C(=O)OCCN(C)C)cc1 [Compound No. 59, 2-ethoxy-1-[[4'-(2"-N,N-dimethylaminoethoxycarbonyl)phenyl]methyl]-1H-benzimidazole-6-carboxylic acid perhydroazepinamide]
Number of deaths/number of survivals [3]: 0/5

Compound: CCOC(=O)[C@H](CCc1ccccc1)N[C@@H](C)C(=O)N1CCC[C@H]1C(=O)O [Enalapril]
Blood pressure [4]: the blood pressure is lowered | progress of the kidney diseases [4]: the progress of the kidney diseases is ameliorated

Compound: CCOc1nc2ccc(C(=O)N3CCCC3)cc2n1Cc1ccc(C(=O)OCCN(C)C)cc1 [Compound No. 65, 2-ethoxy-1-[[4'-[2"-(dimethylamino)-ethoxycarbonyl]phenyl]methyl]-1H-benzimidazole-6-carboxylic acid pyrrolidinamide]
Number of deaths/number of survivals [3]: 0/5

Compound: CCOc1nc2ccc(C(=O)N3CCCCC3)cc2n1Cc1ccc(C(=O)OCCN(C)C)cc1 [Compound No. 55, 2-ethoxy-1-[[4'-(2"-N,N-dimethylaminoethoxycarbonyl)phenyl]methyl]-1H-benzimidazole-6-carboxylic acid piperidinamide]
Number of deaths/number of survivals [3]: 0/5

Compound: C[C@H](CS)C(=O)N1CCC[C@H]1C(=O)O [Captopril]
Blood pressure [4]: the blood pressure is lowered | progress of the kidney diseases [4]: the progress of the kidney diseases is ameliorated

The remaining lines, values ahead:

inhibition [1]: 45% | inhibition [2]: 0%
Compound: CCCOc1nc2ccc(C(=O)N3CCOCC3)cc2n1Cc1ccc(C(=O)O)cc1 [Compound No. 3, 2-n-propoxy-1-[(4'-carboxyphenyl)methyl]-1H-benzimidazole-6-carboxylic acid morpholide]

inhibition [1]: 45% | inhibition [2]: 0%
Compound: CCOc1nc2ccc(C(=O)N3CCOCC3)cc2n1Cc1ccc(C(=O)O)cc1 [Compound No. 1, 2-ethoxy-1-[(4'-carboxyphenyl)methyl]-1H-benzimidazole-6-carboxylic acid morpholide]

inhibition [1]: 0% | inhibition [2]: 0%
Compound: CCOc1nc2ccc(C(=O)N3CCOCC3)cc2n1Cc1ccc(O)cc1 [compound 2]

inhibition [1]: 50% | inhibition [2]: 0%
Compound: CCOc1nc2ccc(C(=O)N3CCCC3)cc2n1Cc1ccc(C(=O)O)cc1 [Compound No. 6, 2-ethoxy-1-[(4'-carboxyphenyl)methyl]-1H-benzimidazole-6-carboxylic acid pyrrolidinamide]

inhibition [1]: 45% | inhibition [2]: 0%
Compound: CCCCOc1nc2ccc(C(=O)N3CCOCC3)cc2n1Cc1ccc(C(=O)O)cc1 [Compound No. 4]
